Measured values published in patent US9630922B2, “3-spiro-7-hydroxamic acid tetralins as HDAC inhibitors” (Forma Therapeutics, Inc., priority 2015, dated 2017).

Biological target: T1, HDAC6 (Homo sapiens, UniProt Q9UBN7)
T1 construct: Full length human recombinant HDAC6 protein was expressed in baculoviral system; made in house; host or cells: baculoviral system
T1 sequence (Q9UBN7 1-1215): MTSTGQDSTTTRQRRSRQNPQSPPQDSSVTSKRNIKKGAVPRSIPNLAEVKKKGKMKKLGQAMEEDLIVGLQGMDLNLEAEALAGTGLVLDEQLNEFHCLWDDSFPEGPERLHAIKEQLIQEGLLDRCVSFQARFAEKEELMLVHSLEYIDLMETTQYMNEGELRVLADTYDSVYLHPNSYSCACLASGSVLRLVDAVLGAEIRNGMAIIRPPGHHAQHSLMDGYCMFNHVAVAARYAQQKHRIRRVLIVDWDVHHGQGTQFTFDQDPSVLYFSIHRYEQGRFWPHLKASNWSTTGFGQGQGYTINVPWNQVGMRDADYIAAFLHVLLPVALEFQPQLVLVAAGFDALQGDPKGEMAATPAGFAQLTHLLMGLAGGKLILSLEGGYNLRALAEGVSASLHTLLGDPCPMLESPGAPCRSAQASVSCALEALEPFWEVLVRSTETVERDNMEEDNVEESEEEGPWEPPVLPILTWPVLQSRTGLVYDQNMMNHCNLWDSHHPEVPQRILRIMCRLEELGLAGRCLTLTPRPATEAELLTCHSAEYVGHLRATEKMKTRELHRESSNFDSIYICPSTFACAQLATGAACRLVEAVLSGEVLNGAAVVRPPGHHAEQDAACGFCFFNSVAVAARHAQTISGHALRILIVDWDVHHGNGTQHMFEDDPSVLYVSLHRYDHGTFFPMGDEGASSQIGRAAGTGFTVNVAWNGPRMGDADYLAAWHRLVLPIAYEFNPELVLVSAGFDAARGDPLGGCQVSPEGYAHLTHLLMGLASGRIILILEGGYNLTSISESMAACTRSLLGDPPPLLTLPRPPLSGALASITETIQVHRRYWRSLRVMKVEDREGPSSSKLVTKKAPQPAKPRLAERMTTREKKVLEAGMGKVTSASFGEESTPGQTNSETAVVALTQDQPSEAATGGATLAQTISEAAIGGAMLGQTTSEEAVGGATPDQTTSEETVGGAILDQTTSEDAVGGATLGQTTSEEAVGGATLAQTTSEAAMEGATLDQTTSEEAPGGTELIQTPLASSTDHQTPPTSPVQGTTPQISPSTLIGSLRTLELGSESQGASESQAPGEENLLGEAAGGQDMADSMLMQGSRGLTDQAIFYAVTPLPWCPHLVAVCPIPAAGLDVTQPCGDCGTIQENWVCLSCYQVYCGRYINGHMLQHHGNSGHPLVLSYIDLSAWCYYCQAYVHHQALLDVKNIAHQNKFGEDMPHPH
Assay: In vitro Histone Deacetylase Assay (enzymatic HDAC6 electrophoretic mobility shift assay)
Type: biochemical
Settings: full length human recombinant HDAC6, 1 nM enzyme, 2 μM peptide substrate RHKK(Ac)-NH2, 25° C.; read-out: HDAC6 activity range
Experimental: The enzymatic HDAC6 assay was performed using electrophoretic mobility shift assay. Full length human recombinant HDAC6 protein was expressed in baculoviral system and purified by affinity chromatography. The enzymatic reactions were assembled in 384 well plates in a total volume of 25 μL in a reaction buffer composing: 100 mM HEPES, pH7.5, 25 mM KCl, 0.1% bovine serum albumin, 0.01% Triton X-100, 1% DMSO (from compounds) 2 μM of the fluorescently labeled peptide substrate and enzyme. The enzyme was added at a final concentration of 1 nM. The peptide substrate RHKK(Ac)—NH2 was used. The compounds were tested at 12 concentrations spaced by 3× dilution intervals. Negative control samples (0%-inhibition in the absence of inhibitor) and positive control samples (100%-inhibition) were assembled in replicates of four in each assay plate. The reactions were incubated at 25° C. and quenched by the addition of 45 μL of termination buffer (100 mM HEPES, pH 7.5, 0.01% Triton X-100, 0.05% SDS).
The terminated assay plates were analyzed on LabChip® 3000 microfluidic electrophoresis instrument (Perkin Elmer/Caliper Life Sciences). The fluorescence intensity of the electrophoretically separated de-acetylated product and substrate peptide was measured. Activity in each sample was determined as the product to sum ratio (PSR): P/(S+P), where P is the peak height of the product peptide and S is the peak height of the substrate peptide. Percent inhibition (Pinh) is determined using the following equation:
Pinh=(PSR0%−PSRinh)/(PSR0%−PSR100%)*100, where PSRinh is the product sum ratio in the presence of inhibitor, PSR0% is the average product sum ration in the absence of inhibitor and PSR100% is the average product sum ratio in 100%-inhibition control samples. The IC50 values of inhibitors were determined by fitting the %-inhibition curves with 4 parameter dose-response model using XLfit 4 software.
As set forth in Table-31, below, IC50 values are defined as follows: IC50≦0.1 μM (+++); IC50>0.1 μM and ≦0.5 μM (++); IC50>0.5 μM (+).

| SMILES | IC50 |
| --- | --- |
| O=C(NO)c1ccc2c(c1)CC[C@]1(CCN(c3cccc4c3OCC4)C1=O)C2 [Compound I-96, (R)-1′-(2,3-dihydrobenzofuran-7-yl)-N-hydroxy-2′-oxo-3,4-dihydro-1H-spiro[naphthalene-2,3′-pyrrolidine]-6-carboxamide] | ≤ 100 nM |
| O=C(NO)c1ccc2c(c1)CC[C@@]1(CCN(Cc3cccc(Cl)c3)C1=O)C2 [Compound I-81, (S)-1′-[(3-chlorophenyl)methyl]-N-hydroxy-2′-oxo-3,4-dihydro-1H-spiro[naphthalene-2,3′-pyrrolidine]-6-carboxamide] | ≤ 100 nM |
| Cc1ccccc1CN1CC[C@@]2(CCc3cc(C(=O)NO)ccc3C2)C1=O [Compound I-66, (S)-N-hydroxy-1′-(2-methylbenzyl)-2′-oxo-3,4-dihydro-1H-spiro[naphthalene-2,3′-pyrrolidine]-6-carboxamide] | ≤ 100 nM |
| Cc1ncccc1N1CC[C@]2(CCc3cc(C(=O)NO)ccc3C2)C1=O [Compound I-131, (R)-N-hydroxy-1′-(2-methylpyridin-3-yl)-2′-oxo-3,4-dihydro-1H-spiro[naphthalene-2,3′-pyrrolidine]-6-carboxamide] | ≤ 100 nM |
| COc1ccc(N2CC[C@@]3(CCc4cc(C(=O)NO)ccc4C3)C2=O)c(F)c1 [Compound I-127, (2S)-1′-(2-fluoro-4-methoxyphenyl)-N-hydroxy-2′-oxo-3,4-dihydro-1H-spiro[naphthalene-2,3′-pyrrolidine]-6-carboxamide] | ≤ 100 nM |
| CN(C)CCCN1CCC2(CCc3cc(C(=O)NO)ccc3C2)C1=O (centres unmarked) [Compound I-9, 1′-(3-(dimethylamino)propyl)-N-hydroxy-2′-oxo-3,4-dihydro-1H-spiro[naphthalene-2,3′-pyrrolidine]-6-carboxamide] | 100 to 500 nM |
| O=C(NO)c1ccc2c(c1)CCC1(CCN(c3ccccc3)C1=O)S2(=O)=O (centres unmarked) [Compound I-238, N-hydroxy-2-oxo-1-phenylspiro[pyrrolidine-3,2′-thiochromane]-6′-carboxamide 1′,1′-dioxide] | 100 to 500 nM |
| O=C(NO)c1ccc2c(c1)CCC1(CC(=O)N(CC(F)(F)F)C1)C2 (single isomer, unassigned) [Compound I-223] | ≤ 100 nM |
| COc1ccc(CN2CC[C@]3(CCc4cc(C(=O)NO)ccc4C3)C2=O)cc1 [Compound I-56, (R)-N-hydroxy-1′-(4-methoxybenzyl)-2′-oxo-3,4-dihydro-1H-spiro[naphthalene-2,3′-pyrrolidine]-6-carboxamide] | ≤ 100 nM |
| COc1cc(N2CC[C@]3(CCc4cc(C(=O)NO)ccc4C3)C2=O)ccc1F [Compound I-128, (2R)--(4-fluoro-3-methoxyphenyl)-N-hydroxy-2′-oxo-3,4-dihydro-1H-spiro[naphthalene-2,3′-pyrrolidine]-6-carboxamide] | ≤ 100 nM |
| O=C(NO)c1ccc2c(c1)CC[C@]1(CCN(c3ccccn3)C1=O)C2 [Compound I-20, (R)-N-hydroxy-2′-oxo-1′-(pyridin-2-yl)-3,4-dihydro-1H-spiro[naphthalene-2,3′-pyrrolidine]-6-carboxamide] | ≤ 100 nM |
| COc1ccc(CN2CC[C@@]3(CCc4cc(C(=O)NO)ccc4C3)C2=O)cc1 [Compound I-83, (S)-N-hydroxy-1′-(4-methoxybenzyl)-2′-oxo-3,4-dihydro-1H-spiro[naphthalene-2,3′-pyrrolidine]-6-carboxamide] | ≤ 100 nM |
| CN1CCC[C@@]2(CCc3cc(C(=O)NO)ccc3C2)C1=O (single isomer, unassigned) [Compound I-179] | ≤ 100 nM |
| COc1ccc(CCN2CCC3(CCc4cc(C(=O)NO)ccc4C3)C2)cc1 (centres unmarked) [Compound I-2, N-hydroxy-1′-(4-methoxyphenethyl)-3,4-dihydro-1H-spiro[naphthalene-2,3′-pyrrolidine]-6-carboxamide] | 100 to 500 nM |
| CCCN1CC[C@@]2(CCc3cc(C(=O)NO)ccc3C2)C1=O [Compound I-60, (S)-N-hydroxy-2′-oxo-1′-propyl-3,4-dihydro-1H-spiro[naphthalene-2,3′-pyrrolidine]-6-carboxamide] | 100 to 500 nM |
| O=C(NO)c1ccc2c(c1)CC[C@]1(CCN(Cc3ccccn3)C1=O)C2 [Compound I-52, (R)-N-hydroxy-2′-oxo-1′-(pyridin-2-ylmethyl)-3,4-dihydro-1H-spiro[naphthalene-2,3′-pyrrolidine]-6-carboxamide] | ≤ 100 nM |
| O=C(NO)c1ccc2c(c1)CCC1(CCN(S(=O)(=O)C3CCCCC3)CC1)O2 [II-6, 1′-(cyclohexylsulfonyl)-N-hydroxyspiro[chromane-2,4′-piperidine]-6-carboxamide] | 100 to 500 nM |
| O=C(NO)c1ccc2c(c1)CC[C@]1(CCN(C3CC3)C1=O)C2 [Compound I-109, (R)-1′-cyclopropyl-N-hydroxy-2′-oxo-3,4-dihydro-1H-spiro[naphthalene-2,3′-pyrrolidine]-6-carboxamide] | ≤ 100 nM |
| CN1CCC2(CCc3cc(C(=O)NO)ccc3O2)C1=O (centres unmarked) [Compound I-237, N-hydroxy-1′-methyl-2′-oxospiro[chromane-2,3′-pyrrolidine]-6-carboxamide] | 100 to 500 nM |
| O=C(NO)c1ccc2c(c1)CC[C@]1(CCN(C3CCCC3)C1=O)C2 [Compound I-163, (R)-1′-cyclopentyl-N-hydroxy-2′-oxo-3,4-dihydro-1H-spiro[naphthalene-2,3′-pyrrolidine]-6-carboxamide] | ≤ 100 nM |
| COc1cccc(CN2CC[C@@]3(CCc4cc(C(=O)NO)ccc4C3)C2=O)c1 [Compound I-77, (S)-N-hydroxy-1′-(3-methoxybenzyl)-2′-oxo-3,4-dihydro-1H-spiro[naphthalene-2,3′-pyrrolidine]-6-carboxamide] | ≤ 100 nM |
| O=C(NO)c1ccc2c(c1)CCC1(CCN(CC3CCCCC3)C1=O)C2 (centres unmarked) [Compound I-7, 1′-(cyclohexylmethyl)-N-hydroxy-2′-oxo-3,4-dihydro-1H-spiro[naphthalene-2,3′-pyrrolidine]-6-carboxamide] | 100 to 500 nM |
| O=C(NO)c1ccc2c(c1)CCC1(CC(=O)N(CC(F)(F)F)C1)C2 (single isomer, unassigned) [Compound I-220] | ≤ 100 nM |
| O=C(NO)c1ccc2c(c1)CC[C@]1(CCN(Cc3ccccc3OC(F)(F)F)C1=O)C2 [Compound I-41, (R)-N-hydroxy-2′-oxo-1′-(2-(trifluoromethoxy)benzyl)-3,4-dihydro-1H-spiro[naphthalene-2,3′-pyrrolidine]-6-carboxamide] | ≤ 100 nM |
| COc1ccc(CCN2CCC3(CCc4cc(C(=O)NO)ccc4C3)C2=O)cc1 (centres unmarked) [Compound I-4, N-hydroxy-1′-(4-methoxyphenethyl)-2′-oxo-3,4-dihydro-1H-spiro[naphthalene-2,3′-pyrrolidine]-6-carboxamide] | ≤ 100 nM |
| O=C(NO)c1ccc2c(c1)CC[C@]1(CC(=O)N(Cc3cccnc3)C1)C2 (single isomer, unassigned) [Compound I-226] | ≤ 100 nM |
